Reference: ChEMBL document CHEMBL3885881, “DrugMatrix”

Species: Rattus norvegicus
Test: DrugMatrix - Regimen: Daily Repeat
Type: toxicity, organism-based, Sprague-Dawley
Design: regimen Daily Repeat, gender Male, age 6-8 weeks
Details: in vivo, po, route oral GAVAGE, vehicle .5 % CMC; for BASOPHIL / EOSINOPHIL / ERYTHROCYTE COUNT / HEMATOCRIT / HEMOGLOBIN / LEUKOCYTE COUNT / LYMPHOCYTE / MEAN CORPUSCULAR HEMOGLOBIN / MEAN CORPUSCULAR HEMOGLOBIN CONCENTRATION / MEAN CORPUSCULAR VOLUME / MONOCYTE / NEUTROPHIL / PLATELET COUNT: tissue Blood; for ALANINE AMINOTRANSFERASE / ALBUMIN / ALKALINE PHOSPHATASE / ASPARTATE AMINOTRANSFERASE / BLOOD UREA NITROGEN / CHLORIDE / CHOLESTEROL / CREATINE PHOSPHOKINASE / CREATININE / GLUCOSE / PHOSPHORUS / POTASSIUM / SODIUM / TOTAL BILIRUBIN / TOTAL PROTEIN: tissue Plasma
[1] = 0 mg/kg, 72 h, dose level Control, time 3 day
[2] = 0 mg/kg, 120 h, dose level Control, time 5 day
[3] = 45 mg/kg, 72 h, dose level Low, time 3 day
[4] = 45 mg/kg, 120 h, dose level Low, time 5 day

Compound: Nc1ccc(C(=O)O)c(O)c1 [AMINOSALICYLIC ACID]
- BASOPHIL [1]: 0%
- EOSINOPHIL [1]: 0%
- ERYTHROCYTE COUNT [1]: 6.34 x10E6/uL
- HEMATOCRIT [1]: 37.62%
- HEMOGLOBIN [1]: 14.82 G/DL
- LEUKOCYTE COUNT [1]: 11.18 x10E3/uL
- LYMPHOCYTE [1]: 87.5%
- MEAN CORPUSCULAR HEMOGLOBIN [1]: 23.48 pg
- MEAN CORPUSCULAR HEMOGLOBIN CONCENTRATION [1]: 39.5 G/DL
- MEAN CORPUSCULAR VOLUME [1]: 59.45 fL
- MONOCYTE [1]: 1.67%
- NEUTROPHIL [1]: 10.83%
- PLATELET COUNT [1]: 1074.83 x10E3/uL
- ALANINE AMINOTRANSFERASE [1]: 36.5 u/L
- ALBUMIN [1]: 3.9 G/DL
- ALKALINE PHOSPHATASE [1]: 370.17 u/L
- ASPARTATE AMINOTRANSFERASE [1]: 63.17 u/L
- BLOOD UREA NITROGEN [1]: 16.83 mg/dL
- CHLORIDE [1]: 99.33 MEQ/L
- CHOLESTEROL [1]: 64.33 mg/dL
- CREATINE PHOSPHOKINASE [1]: 127 u/L
- CREATININE [1]: 0.55 mg/dL
- GLUCOSE [1]: 173.5 mg/dL
- PHOSPHORUS [1]: 10.08 mg/dL
- POTASSIUM [1]: 6.23 MEQ/L
- SODIUM [1]: 143.5 MEQ/L
- TOTAL BILIRUBIN [1]: 0.52 mg/dL
- TOTAL PROTEIN [1]: 6.35 G/DL
- BASOPHIL [2]: 0%
- EOSINOPHIL [2]: 0.17%
- ERYTHROCYTE COUNT [2]: 6.12 x10E6/uL
- HEMATOCRIT [2]: 37.08%
- HEMOGLOBIN [2]: 14.82 G/DL
- LEUKOCYTE COUNT [2]: 11.87 x10E3/uL
- LYMPHOCYTE [2]: 83.33%
- MEAN CORPUSCULAR HEMOGLOBIN [2]: 24.25 pg
- MEAN CORPUSCULAR HEMOGLOBIN CONCENTRATION [2]: 39.97 G/DL
- MEAN CORPUSCULAR VOLUME [2]: 60.65 fL
- MONOCYTE [2]: 1.5%
- NEUTROPHIL [2]: 15%
- PLATELET COUNT [2]: 1042.83 x10E3/uL
- ALANINE AMINOTRANSFERASE [2]: 46 u/L
- ALBUMIN [2]: 3.82 G/DL
- ALKALINE PHOSPHATASE [2]: 369.5 u/L
- ASPARTATE AMINOTRANSFERASE [2]: 65 u/L
- BLOOD UREA NITROGEN [2]: 16.33 mg/dL
- CHLORIDE [2]: 100.67 MEQ/L
- CHOLESTEROL [2]: 57.17 mg/dL
- CREATINE PHOSPHOKINASE [2]: 130 u/L
- CREATININE [2]: 0.53 mg/dL
- GLUCOSE [2]: 163.33 mg/dL
- PHOSPHORUS [2]: 9.53 mg/dL
- POTASSIUM [2]: 6.27 MEQ/L
- SODIUM [2]: 144.83 MEQ/L
- TOTAL BILIRUBIN [2]: 0.55 mg/dL
- TOTAL PROTEIN [2]: 6.32 G/DL
- BASOPHIL [3]: 0%
- EOSINOPHIL [3]: 0%
- ERYTHROCYTE COUNT [3]: 6.2 x10E6/uL
- HEMATOCRIT [3]: 36.9%
- HEMOGLOBIN [3]: 14.43 G/DL
- LEUKOCYTE COUNT [3]: 13.37 x10E3/uL
- LYMPHOCYTE [3]: 88%
- MEAN CORPUSCULAR HEMOGLOBIN [3]: 23.3 pg
- MEAN CORPUSCULAR HEMOGLOBIN CONCENTRATION [3]: 39.13 G/DL
- MEAN CORPUSCULAR VOLUME [3]: 59.6 fL
- MONOCYTE [3]: 0.33%
- NEUTROPHIL [3]: 11.67%
- PLATELET COUNT [3]: 1203.67 x10E3/uL
- ALANINE AMINOTRANSFERASE [3]: 39.33 u/L
- ALBUMIN [3]: 3.83 G/DL
- ALKALINE PHOSPHATASE [3]: 358.33 u/L
- ASPARTATE AMINOTRANSFERASE [3]: 67.33 u/L
- BLOOD UREA NITROGEN [3]: 15 mg/dL
- CHLORIDE [3]: 99.33 MEQ/L
- CHOLESTEROL [3]: 71.33 mg/dL
- CREATINE PHOSPHOKINASE [3]: 117 u/L
- CREATININE [3]: 0.53 mg/dL
- GLUCOSE [3]: 180 mg/dL
- PHOSPHORUS [3]: 10.37 mg/dL
- POTASSIUM [3]: 6.03 MEQ/L
- SODIUM [3]: 143 MEQ/L
- TOTAL BILIRUBIN [3]: 0.47 mg/dL
- TOTAL PROTEIN [3]: 6.27 G/DL
- BASOPHIL [4]: 0%
- EOSINOPHIL [4]: 0%
- ERYTHROCYTE COUNT [4]: 5.82 x10E6/uL
- HEMATOCRIT [4]: 35.1%
- HEMOGLOBIN [4]: 14.37 G/DL
- LEUKOCYTE COUNT [4]: 14.2 x10E3/uL
- LYMPHOCYTE [4]: 88%
- MEAN CORPUSCULAR HEMOGLOBIN [4]: 24.67 pg
- MEAN CORPUSCULAR HEMOGLOBIN CONCENTRATION [4]: 40.97 G/DL
- MEAN CORPUSCULAR VOLUME [4]: 60.3 fL
- MONOCYTE [4]: 2%
- NEUTROPHIL [4]: 10%
- PLATELET COUNT [4]: 1018.67 x10E3/uL
- ALANINE AMINOTRANSFERASE [4]: 34.33 u/L
- ALBUMIN [4]: 3.6 G/DL
- ALKALINE PHOSPHATASE [4]: 348.33 u/L
- ASPARTATE AMINOTRANSFERASE [4]: 58 u/L
- BLOOD UREA NITROGEN [4]: 15 mg/dL
- CHLORIDE [4]: 101 MEQ/L
- CHOLESTEROL [4]: 62.67 mg/dL
- CREATINE PHOSPHOKINASE [4]: 122.67 u/L
- CREATININE [4]: 0.47 mg/dL
- GLUCOSE [4]: 155.33 mg/dL
- PHOSPHORUS [4]: 10 mg/dL
- POTASSIUM [4]: 6.3 MEQ/L
- SODIUM [4]: 144.67 MEQ/L
- TOTAL BILIRUBIN [4]: 0.37 mg/dL
- TOTAL PROTEIN [4]: 5.8 G/DL
